# Experimental data published in patent US6667387B1, “HCV core peptides” (priority 1992, dated 2003).
# Ends that are not written are not given here. * marks the point of attachment. Biotin = O=C1N[C@H]2[C@H](CS[C@H]2CCCCC(=O)*)N1
# Test system: antibodies to HTLV-I and HTLV-II (serum panel PRP203)
# Assay: Line immunoassay (LIA) with biotinylated HTLV-I and HTLV-II peptides
# Type: binding, human
# Conditions: sample nr. 12 of panel PRP203
# Source text: A number of these peptides were used to prepare LIA strips for the detection of antibodies of HTLV. Several of the peptides, such as I-p19 and I-gp46-4, which are derived from regions of the HTLV-I p19 gag protein and envelope glycoprotein, respectively, are expected to be recognized by antibodies produced as a result of both HTLV-I and HTLV-II infection since these sequences are highly homologous in the two viruses. Others, such as I-gp46-3, I-gp46-6 for HTLV-I, and II-gp52-1, II-gp52-2 and II-gp52-3 for HTLV-II may be useful for detection of antibodies as well as discrimination. Since there is some homology between the HTLV-I and HTLV-II sequences, cross-reactions are to be expected. Nevertheless, the intensities of the reactions to the various peptides should reveal the identity of the virus to which the antibodies were produced.
# The LIA strips were evaluated using a commercially available serum panel (Boston Biomedia Inc., mixed titer panel, PRP203). The test results are in complete agreement with the analysis provided by distributor. […] This sample could not be differentiated using these peptides, nor could this sample be differentiated by any other test used by the distributor of the serum panel. Sample nr. […] In an additional experiment, an ELISA was performed using all 10 of the biotinylated HTLV-I and HTLV-II peptides. […]
substance,measurement,value
Bio Gly Gly Pro Pro Pro Pro Ser Ser Pro Thr His Asp Pro Pro Asp Ser Asp Pro Gln Ile Pro Pro Pro Tyr Val Glu Pro Thr Ala Pro Gln Val Leu (Biotin-GGPPPPSSPTHDPPDSDPQIPPPYVEPTAPQVL) [I-p19],LIA reaction,positive reaction
